Values after ≈ are worked out from the molar mass of the structure shown.
Experiments:
Assay type in all cases: cell-based
Lactobacillus casei = assay: Minimum Inhibitory Concentration (MIC) assay; details: Lacticaseibacillus casei; anaerobic, 37° C., 18 h
Experimental: (§1) The bioactivity of macrolide compounds against 4 strains of common gut bacteria (Escherichia coli, Streptococcus salivarius subsp. salivarius, Lactobacillus casei and Bifidobacterium longum subsp. infantis) and common mammalian skin isolate Micrococcus luteus, was assessed using the Minimum Inhibitory Concentration (MIC) assay. Bacterial strains were purchased from DSMZ (Brunswick, Germany) except M. luteus which was obtained from NCIMB, and stored in 20% glycerol at −80° C. Stock solutions (100% DMSO) of positive controls (azithromycin and erythromycin), and of test compounds 1 and 2 were diluted in broth to working stock concentrations of 256 μg/ml (final assay testing concentration range 128 μg/ml to 0.00391 μg/ml). Stock solutions of all other compounds were diluted in broth to working stock concentrations of 128 μg/ml (final assay testing concentration range 64 μg/ml to 0.00195 μg/ml). Bacterial strains were cultivated in appropriate broth in an anaerobic chamber at 37° C., except for M. luteus which was incubated aerobically at 37° C. 18 h cultures were diluted in broth to an OD595 of 0.1 and then further diluted 1:10. In 96-well plates, in duplicate, 200 μl working stock of test compound was transferred to well 1 and serially diluted (1:2) in broth. 100 μl bacterial suspension was aliquoted into each well and mixed thoroughly. Appropriate sterility controls were included and plates were incubated in an anaerobic chamber, or aerobically (M. luteus) at 37° C. for 18 h. The MIC was determined to be the concentration of test compound in the first well with no visible growth.

Micrococcus luteus = assay: Minimum Inhibitory Concentration (MIC) assay; details: aerobic, 37° C., 18 h
Experimental: as §1

[1] = test system: Streptococcus salivarius subsp. salivarius; assay: Minimum Inhibitory Concentration (MIC) assay; details: anaerobic, 37° C., 18 h
Experimental: as §1

Escherichia coli = assay: Minimum Inhibitory Concentration (MIC) assay; details: anaerobic, 37° C., 18 h
Experimental: as §1

[2] = test system: Bifidobacterium longum subsp. infantis; assay: Minimum Inhibitory Concentration (MIC) assay; details: anaerobic, 37° C., 18 h
Experimental: as §1

human TLR2 = target: T1, human TLR2 (Homo sapiens, UniProt O60603); assay: TLR2 reporter assay (HEK-293-TLR, SEAP); details: for TLR2 stimulation: at concentrations up to 20 uM
T1 construct: host or cells: recombinant HEK-293-TLR cell lines
Experimental: Samples and controls were tested in duplicate on recombinant HEK-293-TLR cell lines using a cell reporter assay at Invivogen using their standard assay conditions. These cell lines functionally over-express human TLR2 protein as well as a reporter gene which is a secreted alkaline phosphatase (SEAP). The production of this reporter gene is driven by an NFkB inducible promoter. The TLR reporter cell lines activation results are given as optical density values (OD).
20 μl of each test article were used to stimulate the hTLR2 reporter cell lines in a 200 μl of final reaction volume. Samples were tested in duplicate, with at least two concentrations tested—20 uM and 10 uM.
Compounds were tested using a TLR2 reporter assay (see general methods) that measured for stimulation of the TLR2 receptor. Stimulatory effect was measured as an increase in optical density (OD) due to release of secreted alkaline phosphatase (SEAP) and is shown in table 4: […]

[3] = test system: E. coli, S. salivarius, L. casei, B. longum or M. luteus; assay: Direct antibacterial activity, summary over all strains tested; details: summary in words of Table 1
Experimental: as §1

T1 sequence (O60603 21-784): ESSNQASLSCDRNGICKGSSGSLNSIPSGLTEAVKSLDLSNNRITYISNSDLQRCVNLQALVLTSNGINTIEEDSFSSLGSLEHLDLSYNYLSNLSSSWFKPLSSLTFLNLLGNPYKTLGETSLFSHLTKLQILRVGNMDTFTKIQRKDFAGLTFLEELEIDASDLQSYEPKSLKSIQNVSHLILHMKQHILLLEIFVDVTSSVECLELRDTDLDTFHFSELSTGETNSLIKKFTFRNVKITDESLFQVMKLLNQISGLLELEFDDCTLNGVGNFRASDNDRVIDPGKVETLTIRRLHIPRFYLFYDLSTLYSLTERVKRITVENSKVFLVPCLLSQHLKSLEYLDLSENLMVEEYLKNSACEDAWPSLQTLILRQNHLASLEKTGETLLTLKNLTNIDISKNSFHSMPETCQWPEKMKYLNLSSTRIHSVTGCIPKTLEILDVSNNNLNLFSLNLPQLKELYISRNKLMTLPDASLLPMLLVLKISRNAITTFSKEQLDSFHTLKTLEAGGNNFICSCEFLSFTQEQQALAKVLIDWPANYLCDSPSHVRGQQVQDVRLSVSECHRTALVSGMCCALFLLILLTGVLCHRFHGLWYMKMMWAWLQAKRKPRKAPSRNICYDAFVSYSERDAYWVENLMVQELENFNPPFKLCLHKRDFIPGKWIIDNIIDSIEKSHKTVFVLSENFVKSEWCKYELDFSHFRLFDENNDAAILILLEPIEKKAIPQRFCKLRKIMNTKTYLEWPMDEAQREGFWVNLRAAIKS

| SMILES | MIC (Lactobacillus casei) | MIC (Micrococcus luteus) | MIC [1] | MIC (Escherichia coli) | MIC [2] | OD after addition of 5 μM test article (human TLR2) | OD after addition of 10 μM test article (human TLR2) | OD after addition of 20 μM test article (human TLR2) | TLR2 stimulation (human TLR2) | lowest concentration at which TLR2 was stimulated (concentrations down to) (human TLR2) | antibacterial activity against the bacterial strains tested [3] |
| --- | --- | --- | --- | --- | --- | --- | --- | --- | --- | --- | --- |
| CC[C@H]1OC(=O)[C@H](C)[C@@H](O[C@H]2CC(N(C)C)[C@H](O)C(C)O2)[C@H](C)[C@@H](O)[C@](C)(O)C[C@@H](C)CN(C)[C@H](C)[C@@H](O)[C@H]1C (stereo partly drawn) [Compound 4] | > 64 µg/mL | – | > 64 µg/mL | > 64 µg/mL | > 64 µg/mL | – | – | – | – | – | no antibacterial activity |
| CC1O[C@@H](O[C@H]2[C@H](C)[C@@H](O)[C@](C)(O)C[C@@H](C)C(=O)[C@H](C)[C@@H](O)[C@@H](C)[C@@H](C3CCC3)OC(=O)[C@@H]2C)CC(N(C)C)[C@@H]1O (stereo partly drawn) [Compound 5] | > 64 µg/mL | – | > 64 µg/mL | > 64 µg/mL | > 64 µg/mL | – | – | – | – | – | no antibacterial activity |
| CC[C@H]1OC(=O)[C@H](C)[C@@H](O[C@H]2CC(NC)[C@H](O)C(C)O2)[C@H](C)[C@@H](O)[C@](C)(O)C[C@@H](C)C(=O)[C@H](C)[C@@H](O)[C@H]1C (stereo partly drawn) [Compound 6] | > 64 µg/mL | – | > 64 µg/mL | > 64 µg/mL | > 64 µg/mL | – | – | – | – | – | no antibacterial activity |
| CC(O)[C@H]1OC(=O)[C@H](C)[C@@H](O[C@H]2C[C@@H](N(C)C)[C@H](O)[C@@H](C)O2)[C@H](C)[C@@H](O)[C@](C)(O)C[C@@H](C)C(=O)[C@H](C)[C@@H](O)[C@H]1C (stereo partly drawn) [Compound 9, 14-hydroxy angolosamine erythronolide B] | > 64 µg/mL | – | > 64 µg/mL | > 64 µg/mL | > 64 µg/mL | – | – | – | – | – | no antibacterial activity |

More lines, main results first:

| MIC (Lactobacillus casei) | MIC (Micrococcus luteus) | MIC [1] | MIC (Escherichia coli) | MIC [2] | OD after addition of 5 μM test article (human TLR2) | OD after addition of 10 μM test article (human TLR2) | OD after addition of 20 μM test article (human TLR2) | TLR2 stimulation (human TLR2) | lowest concentration at which TLR2 was stimulated (concentrations down to) (human TLR2) | SMILES | antibacterial activity against the bacterial strains tested [3] |
| --- | --- | --- | --- | --- | --- | --- | --- | --- | --- | --- | --- |
| < 1 µg/mL | 0.125 µg/mL (≈ 0.167 µM) | < 0.5 µg/mL | < 8 µg/mL | > 64 µg/mL | 0.029 OD | 0.045 OD | 0.031 OD | little or no stimulation | – | CC[C@H]1OC(=O)[C@H](C)[C@@H](O[C@H]2C[C@@](C)(OC)[C@@H](O)[C@H](C)O2)[C@H](C)[C@@H](O[C@@H]2O[C@H](C)C[C@H](N(C)C)[C@H]2O)[C@](C)(O)C[C@@H](C)CN(C)[C@H](C)[C@@H](O)[C@]1(C)O [Azithromycin, reference compound] | potent activity against a number of the strains |
| – | – | – | – | – | −0.043 OD | −0.015 OD | −0.026 OD | little or no stimulation | – | CC[C@H]1OC(=O)[C@H](C)[C@@H](O[C@H]2CC(N(C)C)[C@H](O)C(C)O2)[C@H](C)[C@@H](O)[C@](C)(O)C[C@@H](C)C(=O)[C@H](C)[C@@H](O)[C@H]1C (stereo partly drawn) [Compound 3] | no antibacterial activity |
| > 64 µg/mL | – | > 64 µg/mL | > 64 µg/mL | > 64 µg/mL | – | – | – | – | – | CC1O[C@@H](O[C@H]2[C@H](C)[C@@H](O)[C@](C)(O)C[C@@H](C)C(=O)[C@H](C)[C@@H](O)[C@@H](C)[C@@H](C)OC(=O)[C@@H]2C)CC(N(C)C)[C@@H]1O (stereo partly drawn) [Compound 8] | no antibacterial activity |
| – | – | – | – | – | 0.054 OD | 0.155 OD | 0.234 OD | – | 10 µM | CC[C@H]1OC(=O)[C@H](C)[C@@H](O[C@H]2CC(N(C)C)[C@H](O)C(C)O2)[C@H](C)[C@@H](O)[C@](C)(O)C[C@@H](C)N(C)C[C@H](C)[C@@H](O)[C@]1(C)O (stereo partly drawn) [Compound 17] | – |
| < 0.25 µg/mL | < 0.0625 µg/mL | < 0.06 µg/mL | > 64 µg/mL | > 64 µg/mL | 0.035 OD | 0.065 OD | 0.045 OD | little or no stimulation | – | CC[C@H]1OC(=O)[C@H](C)[C@@H](O[C@H]2C[C@@](C)(OC)[C@@H](O)[C@H](C)O2)[C@H](C)[C@@H](O[C@@H]2O[C@H](C)C[C@H](N(C)C)[C@H]2O)[C@](C)(O)C[C@@H](C)C(=O)[C@H](C)[C@@H](O)[C@]1(C)O [Erythromycin, reference compound] | potent activity against a number of the strains |
